Experimental findings from patent US8163917B2, “Azaindoles useful as inhibitors of Janus kinases” (Vertex Pharmaceuticals Incorporated, priority 2006, dated 2012) are described below.

In experiment [1] the target is T1, JAK3 (Homo sapiens, UniProt P52333).
T1 sequence (P52333 1-1124): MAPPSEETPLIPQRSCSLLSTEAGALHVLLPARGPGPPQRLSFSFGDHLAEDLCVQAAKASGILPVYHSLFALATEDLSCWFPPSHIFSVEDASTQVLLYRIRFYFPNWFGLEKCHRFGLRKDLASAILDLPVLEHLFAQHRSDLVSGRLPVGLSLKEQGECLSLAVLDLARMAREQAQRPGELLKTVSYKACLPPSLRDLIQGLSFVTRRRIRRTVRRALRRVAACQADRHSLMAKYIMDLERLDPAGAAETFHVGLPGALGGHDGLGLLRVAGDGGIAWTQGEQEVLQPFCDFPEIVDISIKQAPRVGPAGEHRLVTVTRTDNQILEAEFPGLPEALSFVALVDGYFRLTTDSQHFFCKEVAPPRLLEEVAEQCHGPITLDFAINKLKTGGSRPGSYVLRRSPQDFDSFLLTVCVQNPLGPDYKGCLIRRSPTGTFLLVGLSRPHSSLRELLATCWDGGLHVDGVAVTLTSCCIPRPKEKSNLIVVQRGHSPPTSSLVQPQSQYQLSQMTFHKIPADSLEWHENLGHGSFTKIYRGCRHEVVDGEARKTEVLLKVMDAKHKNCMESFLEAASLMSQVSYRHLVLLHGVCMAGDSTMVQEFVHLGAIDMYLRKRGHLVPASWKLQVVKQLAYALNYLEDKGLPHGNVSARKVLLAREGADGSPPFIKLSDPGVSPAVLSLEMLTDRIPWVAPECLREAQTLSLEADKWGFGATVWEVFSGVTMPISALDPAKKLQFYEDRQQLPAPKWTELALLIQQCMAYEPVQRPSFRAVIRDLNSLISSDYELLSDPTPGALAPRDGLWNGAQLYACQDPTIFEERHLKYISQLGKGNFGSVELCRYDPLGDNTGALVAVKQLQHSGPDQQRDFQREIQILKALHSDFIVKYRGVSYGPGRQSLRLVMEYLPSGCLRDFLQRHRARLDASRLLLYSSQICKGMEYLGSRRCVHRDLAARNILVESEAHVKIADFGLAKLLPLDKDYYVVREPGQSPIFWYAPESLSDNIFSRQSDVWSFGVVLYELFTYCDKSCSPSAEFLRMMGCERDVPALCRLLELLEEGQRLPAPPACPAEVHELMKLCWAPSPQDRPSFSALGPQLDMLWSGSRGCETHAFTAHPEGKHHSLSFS
Nature of the experiment: JAK3 Inhibition Assay. The format is biochemical. Conditions: 5 μM ATP, 1 μM poly(Glu)4Tyr, 1 nM JAK3, 25° C. The protocol: (§1) Compounds were screened for their ability to inhibit JAK3 using the assay shown below. Reactions were carried out in a kinase buffer containing 100 mM HEPES (pH 7.4), 1 mM DTT, 10 mM MgCl2, 25 mM NaCl, and 0.01% BSA. Substrate concentrations in the assay were 5 μM ATP (200 uCi/μmole ATP) and 1 μM poly(Glu)4Tyr. Reactions were carried out at 25° C. and 1 nM JAK3.
(§2) To each well of a 96 well polycarbonate plate was added 1.5 μl of a candidate JAK3 inhibitor along with 50 μl of kinase buffer containing […] and 10 μM ATP. This was then mixed and 50 μl of kinase buffer containing 2 nM JAK3 enzyme was added to start the reaction. After 20 minutes at room temperature (25° C.), the reaction was stopped with 50 μl of 20% trichloroacetic acid (TCA) that also contained 0.4 mM ATP. The entire contents of each well were then transferred to a 96 well glass fiber filter plate using a TomTek Cell Harvester. After washing, 60 μl of scintillation fluid was added and ^33P incorporation detected on a Perkin Elmer TopCount.

Experiment [2] concerns the target JAK-2 enzyme (Homo sapiens, UniProt O60674). Briefly: JAK2 Inhibition Assay. Format: biochemical. The following applies: 12 μM ATP, 15 μM poly(Glu)4Tyr. The procedure: as §1, §2
The assays were as described above in Example 3 except that JAK-2 enzyme was used, the final poly(Glu)4Tyr concentration was 15 μM, and final ATP concentration was 12 μM.

SMILES strings stand for the structures.

JAK-2 enzyme, sequence (O60674 whole entry): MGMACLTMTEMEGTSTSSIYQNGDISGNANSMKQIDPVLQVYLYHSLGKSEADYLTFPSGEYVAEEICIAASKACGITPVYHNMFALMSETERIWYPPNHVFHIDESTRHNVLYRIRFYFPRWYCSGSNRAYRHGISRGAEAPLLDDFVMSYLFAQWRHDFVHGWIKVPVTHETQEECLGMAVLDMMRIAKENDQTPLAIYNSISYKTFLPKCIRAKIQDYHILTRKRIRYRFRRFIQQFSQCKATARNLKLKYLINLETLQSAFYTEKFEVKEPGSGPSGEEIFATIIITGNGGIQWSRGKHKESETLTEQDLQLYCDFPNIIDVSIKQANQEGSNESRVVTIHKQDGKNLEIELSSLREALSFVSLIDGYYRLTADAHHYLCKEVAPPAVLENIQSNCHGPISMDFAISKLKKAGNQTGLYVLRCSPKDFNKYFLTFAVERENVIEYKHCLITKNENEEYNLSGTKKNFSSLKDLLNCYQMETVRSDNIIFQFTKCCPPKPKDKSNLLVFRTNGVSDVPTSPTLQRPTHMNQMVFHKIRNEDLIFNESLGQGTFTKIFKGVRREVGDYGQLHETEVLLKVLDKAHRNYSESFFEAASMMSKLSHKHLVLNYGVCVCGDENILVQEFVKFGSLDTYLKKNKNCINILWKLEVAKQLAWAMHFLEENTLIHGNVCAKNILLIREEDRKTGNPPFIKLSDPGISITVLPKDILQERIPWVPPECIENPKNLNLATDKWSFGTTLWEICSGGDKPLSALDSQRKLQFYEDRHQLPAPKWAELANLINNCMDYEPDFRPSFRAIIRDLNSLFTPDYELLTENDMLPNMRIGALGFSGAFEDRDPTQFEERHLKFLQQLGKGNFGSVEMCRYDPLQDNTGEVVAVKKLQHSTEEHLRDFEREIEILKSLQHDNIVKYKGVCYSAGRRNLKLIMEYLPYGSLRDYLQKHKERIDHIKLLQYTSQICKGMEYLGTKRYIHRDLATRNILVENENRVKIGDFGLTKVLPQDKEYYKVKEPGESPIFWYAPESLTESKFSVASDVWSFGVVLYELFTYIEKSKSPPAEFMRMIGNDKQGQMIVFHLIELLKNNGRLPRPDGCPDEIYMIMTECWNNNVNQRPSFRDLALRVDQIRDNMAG

For `CCCNC(=O)C(C)(C)Nc1nc(-c2c[nH]c3ncc(Cl)cc23)nc2cc(OC)c(OC)cc12` [Compound 223], the Ki (commonly the dissociation constant of the complex between target and ligand, obtained from inhibition or displacement) in experiment [1] is no less than 100 nM.
`CCCNC(=O)N1CCN(c2ccnc(-c3c[nH]c4ncccc34)n2)[C@@H](C(=O)NCC(F)(F)F)C1` [Compound 372] returned a Ki in experiment [2] of no less than 500 nM.
Take `CCC(CC)(Nc1ccnc(-c2c[nH]c3ncccc23)n1)C(=O)NCC(F)(F)F` [Compound 348]: the Ki in experiment [2] is no less than 500 nM.
Take `CCNC(=O)c1cc(N2CCC[C@@H]2C(=O)NCC(F)(F)F)nc(-c2c[nH]c3ncc(Cl)cc23)n1` [Compound 318]: the Ki in experiment [2] is no less than 5000 nM; in experiment [1], no less than 100 nM.
Consider `O=C(NCC(F)(F)F)[C@@H]1CNCCN1c1nc(-c2c[nH]c3ncccc23)ncc1F` [Compound 321], for which the inhibition constant (Ki) in experiment [2] is no less than 500 nM; in experiment [1] it was no less than 100 nM.
As to `O=C(NC1CC1)[C@H]1CCCN1c1nc(-c2c[nH]c3ncc(Cl)cc23)ncc1F` [Compound 177], in experiment [1], the inhibition constant (Ki) is no less than 100 nM.
`O=C(NCC(F)(F)F)[C@H]1C[C@H](O)CN1c1nc(-c2c[nH]c3ncccc23)ncc1F` [Compound 351]: the figures for the inhibition constant Ki in experiment [2] and in experiment [1] were no less than 500 nM and no less than 100 nM, respectively.
As to `CCN(C)C(=O)[C@H]1CCCN1c1nc(-c2c[nH]c3ncc(Cl)cc23)ncc1F` [Compound 336], the Ki in experiment [2] is no less than 500 nM; in experiment [1] it was no less than 100 nM.
For `O=C(O)c1cnc(-c2c[nH]c3ncc(Cl)cc23)nc1N1CCC[C@@H]1C(=O)NCC(F)(F)F` [Compound 56], the values for the inhibition constant Ki in experiment [2] and in experiment [1] were no less than 500 nM and no less than 100 nM, respectively.
Consider `C[C@H]1CCN(c2nc(-c3c[nH]c4ncc(Cl)cc34)ncc2F)[C@@H]1C(=O)NCC(F)(F)F` [Compound 9], for which, in experiment [2], the inhibition constant (Ki) is no less than 500 nM.
`CC(C)NC(=O)[C@H]1CCCN1c1nc(-c2c[nH]c3ncc(Cl)cc23)ncc1F` [Compound 322] showed an inhibition constant Ki in experiment [1] of no less than 100 nM.
As to `CCOC(=O)c1cnc(-c2c[nH]c3ncc(Cl)cc23)nc1N1CCC[C@@H]1C(=O)N(C)CC(F)(F)F` [Compound 338], the Ki in experiment [2] was no less than 500 nM; in experiment [1] it was no less than 100 nM.
Consider `CN(c1nc(-c2c[nH]c3ncccc23)ncc1F)C1(C(=O)NCC(F)(F)F)CC1` [Compound 356], for which the inhibition constant (Ki) in experiment [2] was no less than 500 nM; in experiment [1], no less than 100 nM.
In experiment [1], `CC(C)(C)CC(=O)N1CCN(c2ccnc(-c3c[nH]c4ncccc34)n2)[C@@H](C(=O)NCC(F)(F)F)C1` [Compound 370] registered a Ki of no less than 100 nM.
On the same count and under the same terms, in the case of `COc1cc2nc(-c3c[nH]c4ncccc34)nc(NC(C)(C)C(=O)NCC(F)F)c2cc1OC` [Compound 390] it was no less than 100 nM.
Take `CN(CC(F)(F)F)C(=O)[C@H]1CCCN1c1nc(-c2c[nH]c3ncccc23)ncc1O` [Compound 339]: the Ki was no less than 500 nM in experiment [2] and no less than 100 nM in experiment [1].
For `O=C(NC1CC1)c1cc(N2CCC[C@@H]2C(=O)NCC(F)(F)F)nc(-c2c[nH]c3ncc(Cl)cc23)n1` [Compound 320], the inhibition constant Ki in experiment [2] was no less than 500 nM; in experiment [1], no less than 100 nM.
Take `O=C(NCC(F)(F)F)C1COCCN1c1nc(-c2c[nH]c3ncc(Cl)cc23)ncc1F` (stereo not drawn) [Compound 38]: the Ki in experiment [2] is no less than 500 nM.
For `CNC(=O)c1cc(N2CCC[C@@H]2C(=O)NCC(F)(F)F)nc(-c2c[nH]c3ncc(Cl)cc23)n1` [Compound 317], the Ki in experiment [2] was no less than 500 nM; in experiment [1], no less than 100 nM.
In experiment [1], `COc1cc2nc(-c3c[nH]c4ncccc34)nc(NC(C)(C)C(=O)NCCF)c2cc1OC` [Compound 388] displayed an inhibitory constant (Ki) of no less than 100 nM.
Still for that read-out and setting: in the case of `CCN(C)C(=O)[C@H]1CCCN1c1ccnc(-c2c[nH]c3ncc(Cl)cc23)n1` [Compound 337] it was no less than 100 nM.
The compound `CC(C)CC(=O)N1CCN(c2ccnc(-c3c[nH]c4ncccc34)n2)[C@@H](C(=O)NCC(F)(F)F)C1` [Compound 369] registered a Ki in experiment [1] of no less than 100 nM.
As to `CC(C)C[C@@H](Nc1nc(-c2cn(C)c3ncc(Cl)cc23)ncc1F)C(=O)NCC(F)(F)F` [Compound 22], the Ki in experiment [2] is no less than 500 nM; in experiment [1], no less than 100 nM.
For `CC(C)(Nc1nc(-c2c[nH]c3ncc(Cl)cc23)ncc1C#N)C(=O)NCCC(F)(F)F` [Compound 326], in experiment [1], the inhibitory constant (Ki) is no less than 100 nM.
On to `CC(C)[C@@H](Nc1nc(-c2c[nH]c3ncccc23)ncc1F)C(=O)NCC(F)(F)F` [Compound 367], for which the inhibition constant Ki in experiment [2] is no less than 500 nM; in experiment [1], no less than 100 nM.
As for `CN(CC(F)(F)F)C(=O)[C@H]1CCCN1c1nc(-c2c[nH]c3ncc(Cl)cc23)ncc1O` [Compound 340], the results for the Ki in experiment [2] and in experiment [1] were no less than 500 nM and no less than 100 nM, respectively.
For `CCCNC(=O)c1cc(N2CCC[C@@H]2C(=O)NCC(F)(F)F)nc(-c2c[nH]c3ncc(Cl)cc23)n1` [Compound 319], the values for the Ki in experiment [2] and in experiment [1] were no less than 5000 nM and no less than 2000 nM, respectively.
In turn, `CCOC(=O)c1cnc(-c2c[nH]c3ncc(Cl)cc23)nc1N1CCC[C@@H]1C(=O)NCC(F)(F)F` [Compound 57] registered a Ki in experiment [2] of no less than 500 nM.
As for `COC(=O)c1cc(N2CCC[C@@H]2C(=O)NCC(F)(F)F)nc(-c2c[nH]c3ncc(Cl)cc23)n1` [Compound 35], the Ki in experiment [2] was no less than 500 nM; in experiment [1] it was no less than 100 nM.
Consider `O=C(NCC(F)(F)F)[C@@H]1CCCN1c1nc(-c2c[nH]c3ncccc23)ncc1F` [Compound 310], for which the values for the Ki in experiment [2] and in experiment [1] were no less than 500 nM and no less than 100 nM, respectively.
For `O=C(NCC(F)(F)F)[C@@H]1CCCCN1c1nc(-c2c[nH]c3ncc(Cl)cc23)ncc1F` [Compound 68], in that order: no less than 5000 nM and no less than 2000 nM.
